# Measured values reported in the METLIN SMRT retention time set (Domingo-Almenara et al. 2019).
# Assay: gradient 5% acetonitrile 3 min, to 50% in 2 min, to 85% in 15 min, held 3 min, 100 µL/min
# Conditions: column: Zorbax Extend-C18 2.1 x 50 mm; eluents: water / acetonitrile, 0.1% formic acid
# Method in brief: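 Data were gathered over 3 months by HPLC coupled to a quadrupole time-of-flight mass spectrometer, operated in positive and negative ionization mode. Mixtures of ~100 pure standards ran on a Zorbax Extend-C18 column (2.1 × 50 mm, 1.8 μm) at 100 μL/min, with water and acetonitrile each containing 0.1% formic acid and dead and dwell volumes of 40 μL and 900 μL. Retention time was read from adduct peaks picked by computer and checked manually.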
row,Structure (SMILES),RP-LC retention time [s]
1,Cc1ccc(NC(=O)C2CCCN2S(=O)(=O)c2cc3c(cc2C)NC(=O)C(C)O3)cc1F (centres undefined),860
2,Cc1ccc2nc(-c3ccncc3)cc(C(=O)Nc3nc(-c4ccccc4)c(C)s3)c2c1,990
3,CCOC(=O)C1=C(C)NC2=C(C(=O)c3ccccc32)C1c1ccc(OC)c(OC)c1 (centres undefined),902
4,COc1ccc(C2CC(=O)N(c3ccc(Cl)cc3)C(=O)C2)cc1OC,859
5,CCCN1C(=O)CCc2cc(NS(=O)(=O)c3cccs3)ccc21,797
6,Cc1noc(C)c1CNC(=O)C(C)Oc1ccc(Cl)cc1 (centres undefined),811
7,Cc1c(Cl)cccc1NC(=O)C1CCN(c2c(C(=O)N3CCC(C)CC3)cnc3snc(C)c23)CC1,1040
8,COc1ccc2c(c1)C1(CCN(C(=O)Nc3ccccc3OC)C1)C(=O)N2C (centres undefined),808
9,CCOc1cc(C(=O)NC(C(=O)Nc2nc3ccccc3[nH]2)C(C)C)cc(OCC)c1OCC (centres undefined),824
10,Cc1nc(-c2cc(S(=O)(=O)Nc3cccc(Cl)c3F)c(C)s2)cs1,1030
11,CC(=O)Nc1ccc(S(=O)(=O)NCC2(c3cccs3)CCOCC2)c(C)c1,696
12,O=C(COc1ccc(Cl)cc1Cl)Nc1ccc2c(c1)N(C(=O)c1cccs1)CC2,1060
13,O=C(NC1CCCC1)c1cccnc1N1CCOCC1,637
14,CN(C)CCCNc1ncnc2c1cnn2-c1cccc(Cl)c1,653
15,Cc1ccc(CNC(=O)C2Cn3cccc3C(=O)N2C)o1 (centres undefined),663
16,Cc1ccc(N(C)S(=O)(=O)c2cc3n(c2)CCCNC3=O)cc1,663
17,CCC(=O)N1CCc2c(C(=O)NC3CCCCCC3)cccc21,887
18,Cn1nccc1-c1cccc(-c2noc(-c3ccccc3Br)n2)c1,1180
19,Cc1noc(C)c1CN1CCCC(C)(c2nc(-c3ccccc3)no2)C1 (centres undefined),623
20,COc1ccc(N2C(=O)C3N=NN(Cc4nc(-c5ccc(C)cc5)no4)C3C2=O)cc1 (centres undefined),992
21,COc1ccc(-c2noc(-c3nnn4c3COC(c3ccc(F)cc3)C4)n2)c(OC)c1 (centres undefined),836
22,CC(C)N1CCn2cc(S(=O)(=O)Nc3ccc(Cl)cc3F)cc2C1=O,812
23,COc1cccc(-c2nnc(Cc3nc(-c4ccc(SC)cc4)no3)o2)c1,1050
24,Cn1nccc1-c1cccc(-c2noc(/C=C/c3ccccc3)n2)c1,1160
25,Cc1ccnc(OCC(=O)Nc2ccc(OC(F)(F)F)cc2)n1,771
26,Cc1cc2nn(CC(=O)Nc3ccc(F)c(F)c3)c(=O)n2c(Nc2ccc(F)c(C)c2)n1,1090
27,Cc1ccc(-c2noc(CN3N=NC4C(=O)N(c5ccc(C(C)C)cc5)C(=O)C43)n2)cc1 (centres undefined),1150

row,Structure (SMILES),RP-LC retention time [s]
1,CC(Oc1ccccc1)C(=O)N1CCC(c2cc(N)on2)CC1 (centres undefined),674
2,Cc1cccc(NC(=O)CN2C(=O)CC(C)S(=O)(=O)c3ccccc32)c1C (centres undefined),789
3,O=C(c1cn2c(n1)COCC2)N1CCN(c2cccc(Cl)c2)CC1,708
4,COC[C@@H]1CN(S(=O)(=O)c2ccc(F)cc2)C[C@H]1c1nc(C)no1,858
5,CNC(=O)[C@@H]1CN(C(=O)c2ccsc2)C[C@H]1c1nc(C)no1,615
6,Cc1cc(=O)n(Cc2cccc(Br)c2)c(Nc2ccc(F)c(F)c2)n1,1270
7,CC(=O)c1ccc(NC(=O)CNS(=O)(=O)c2ccc(C(C)(C)C)cc2)cc1,663
8,CN1CC[C@]2(c3cccc(O)c3)Cc3nc4ccccc4cc3C[C@H]2C1,572
9,Cc1nsc2ncc(C(=O)N3CCOCC3)c(N3CCC(C(=O)Nc4cccc(Cl)c4)CC3)c12,848
10,C=C1C(=O)O[C@@H]2[C@H]3O[C@]3(C)CCC=C(C)CC[C@@H]12,844
11,O=C(Nc1nc(-c2ccc(Br)cc2)cs1)c1cccc(-n2cnnc2)n1,884
12,Cc1cc(N(C)C)n2nc(-c3ccc(C(C)(C)C)cc3)nc2n1,927
13,O=C(NCC(F)(F)F)C1CCN(C(=O)Cc2noc3ccccc23)CC1,687
14,CC(C)CNC(=O)c1ccc2c(ccn2C)c1,784
15,CC(C)c1nc2c(NC(=O)C3CC3)cccn2n1,733
16,CCNC(=O)N1CCCC1c1nc(-c2ccccc2OC)no1 (centres undefined),698
17,Cc1ccccc1CNS(=O)(=O)c1ccc2c(c1)C(=O)N(C)c1ncccc1O2,1010
18,CCc1c(C2CCN(C(=O)C3COc4ccccc4O3)CC2)noc1N (centres undefined),684
19,COCCC(=O)N1CCOc2ccc(N(C)C)cc2C1,612
20,Cc1c(Cl)cccc1NC(=O)N1CCC(OC2CCN(S(C)(=O)=O)CC2)CC1,743
21,O=C1NCCCn2cc(S(=O)(=O)Nc3ccc(Oc4ccccc4)cc3)cc21,768
22,CN(CCc1noc(-c2ccc(F)cc2)n1)C(=O)Nc1ccc(F)cc1F,874
23,Cc1nn(C(C)C(=O)Nc2ccc(Cl)cc2)c(=O)c2c(-n3cccc3)n(-c3ccccc3)nc12 (centres undefined),1160
24,Cc1nn(C(C)C(=O)NCCCN2CCN(C)CC2)c(=O)c2c(C)n(-c3ccccc3)nc12 (centres undefined),592
25,COc1ccc(Cl)cc1NC(=O)c1cn(C)c2ncccc12,955
26,Cc1ccc(=O)n(CC(=O)N2CCOCC2)n1,514
27,O=C(Cc1noc2ccccc12)Nc1cccc2nsnc12,814

# Other lines, results leading:
row,RP-LC retention time [s],Structure (SMILES)
1,692,CCc1ccc(C(O)CN2CCN(c3ccccc3)CC2)cc1 (centres undefined)
2,827,CCn1ccc(C(=O)N2CCCC2c2nc(-c3ccc(F)cc3F)no2)n1 (centres undefined)
3,569,O=C(NCCCN1CCCCC1)c1cc2n(n1)CCCN(Cc1ccccc1)C2=O
4,673,Cc1nc(NCCNC(=O)c2ccc(Br)o2)cc(-n2cccn2)n1
5,638,CC(NC(=O)Cc1ccccc1F)C(=O)Nc1nc2ccccc2[nH]1 (centres undefined)
6,768,COc1cccc(N2CCN(c3ccnc(SCC(=O)Nc4ccc(F)cc4)n3)CC2)c1
7,751,O=C(NCc1cccc2ccccc12)NCc1nnnn1-c1ccccc1
8,642,CCOc1ccc(Nc2c(C(=O)N3CCSCC3)cnc3nc(C)ccc23)cc1
9,628,Cc1cc(C)cc(C(=O)NCc2ccc(N3CCOCC3)nc2)c1
10,808,O=C(CN1CCN(Cc2ccccc2F)C1=O)NCc1ccc(F)cc1
11,1110,O=C(Cn1cnc2c(sc3nc(-c4ccccc4)ccc32)c1=O)Nc1ccc(F)c(Cl)c1
12,635,O=C(COc1ccccc1)N1CCCCC1CCN1CCCCC1 (centres undefined)
13,699,Cc1onc(-c2ccccc2Cl)c1C(=O)Nc1cc(C(=O)N2CCCC2)cn(C)c1=O
14,797,O=C(NC1CCN(c2cc(-c3cccs3)[nH]n2)C1)c1cc(F)ccc1Cl (centres undefined)
15,655,Cc1ccc2cc(CCC(=O)N3CCN(C(=O)c4ccco4)CC3)c(=O)[nH]c2c1
16,999,CCc1ccc(CNC(=O)Cn2ccc3ccc(N4CCCCC4)nc32)cc1
17,922,COc1cccc(CNC(=O)C2(C)CCCN(S(=O)(=O)c3ccc(F)cc3F)C2)c1 (centres undefined)
18,736,CCC(C)C(NC(=O)Cc1cccc(F)c1)C(=O)Nc1nc2ccccc2[nH]1 (centres undefined)

row,RP-LC retention time [s],Structure (SMILES)
1,723,CCCn1ncc(N2CCC(C(=O)Nc3ccc(OC)cc3OC)CC2)cc1=O
2,917,CCc1nc(-c2ccc(S(=O)(=O)N3CCC(C(=O)NCc4cccs4)CC3)cc2)no1
3,806,CCOc1cc(=O)n2c(c1C(=O)Nc1ccc(Cl)cc1F)CCCC2
4,770,CCc1cccc(NC(=O)Nc2cccc(-c3ccc(N4CCOCC4)nn3)c2)c1
5,724,CCN(CCN(C)C)C(=O)CN1C(=O)C(Oc2ccc(F)cc2)C12CCCCC2 (centres undefined)
6,599,CC1CCN(CCNC(=O)C2CCCN(c3ncnc4c3nc3n4CCCCC3)C2)CC1 (centres undefined)
7,861,Cc1cc(=O)n(CC(=O)NCc2ccc(F)cc2Cl)c(N)n1
8,1270,CCc1ccc(S(=O)(=O)c2cnc(N3CCN(c4cccc(Cl)c4)CC3)nc2N)cc1
9,828,COc1cccc(N2CCN(C(=O)Cn3ccc4c(c(C)nn4-c4ccccc4)c3=O)CC2)c1
10,627,CC(NC(=O)Cn1c(=O)n(-c2ccc(F)cc2)c2ncccc21)c1ccccn1 (centres undefined)
11,798,COc1ccc(NC(=O)Cn2c(=O)c(CCC(=O)NCC(C)C)nc3ccccc32)cc1
12,650,COc1ccc(Nc2c(C(=O)N3CCCC(C)C3)cnc3nc(C)ccc23)cc1 (centres undefined)
13,754,CC1(C(=O)NCc2ccc3c(c2)OCO3)CCN(C(=O)c2ccc(C#N)cc2)CC1
14,869,CCc1ccc(NC(=O)Nc2cccn3nc(C)nc23)cc1
15,648,CCn1nc(-c2ccccc2)c(-c2ccccc2)c(C(=O)NCCN(C)C)c1=O
16,1080,O=C(c1ccc(C(F)(F)F)cc1)N1CCc2nc(-c3ccc(F)cc3)ncc2C1
17,858,O=C(c1ccccc1Cl)N1CCN(C(=O)c2nnn3c2COC(c2ccccc2)C3)CC1 (centres undefined)
